Experimental data as given in PMC11435328, “An Innovative Inhibitor with a New Chemical Moiety Aimed at Biliverdin IXβ Reductase for Thrombocytopenia and Resilient against Cellular Degradation” (Pharmaceutics, 2024).
Read-outs that look alike come from different tables or passages of the source.

Experiments:
rats = tested on: rats; design: method as in PMID 2160137; settings: cited from earlier work
[1] = target: T1, human BLVRB (half-holo BLVRB) (Homo sapiens, UniProt P30043); design: method as in PMID 34957824; settings: ITC, 25 °C; cited from earlier work
T1 construct: His6 (N, cleaved yes); made in house; host or cells: E. coli BL21(DE3), pET-21b
T1 sequence (P30043 1-206): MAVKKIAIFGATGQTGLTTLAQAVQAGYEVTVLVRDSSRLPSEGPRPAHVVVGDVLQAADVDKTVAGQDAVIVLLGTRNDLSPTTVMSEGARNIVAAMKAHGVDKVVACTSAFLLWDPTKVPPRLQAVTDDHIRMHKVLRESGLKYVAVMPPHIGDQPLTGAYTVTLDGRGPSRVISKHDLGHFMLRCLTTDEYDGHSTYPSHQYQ

[2] = tested on: T2, Escherichia coli (E. coli) AzoR; test: Cleavage by partially purified AzoR fraction, monitored by 1D 1H NMR; assay type: in vitro ADME; settings: incubation with column fraction containing AzoR activity and NAD(P)H
T2 construct: E. coli DH5α cells were cultured in LB medium to obtain AzoR protein at 37 °C; endogenous in cells; host or cells: E. coli DH5α induced with 2-MHQ; Hitrap-Q anion-exchange fraction
Method: E. coli DH5α cells were cultured in LB medium to obtain AzoR protein at 37 °C. Since various electrophilic quinones increase the mRNA level of the acpD gene-encoding AzoR protein [36], 0.5 mM methylhydroquinone (2-MHQ) was added to the culture when the optical density of the cells at 600 nm (OD600) reached 0.8. The cells were harvested by centrifugation after ~3–4 h. To enrich the AzoR protein, anion-exchange column chromatography using the Hitrap-Q HP column (Cytiva, Marlborough, MA, USA) was performed, in which the column was pre-equilibrated with buffer (pH 8.0, 25 mM Tris-HCl), and then 1.0 M NaCl gradient was applied to elute proteins. The AzoR activity in the elution fractions was measured by the enzyme activity assay using 0.1 mM menadione and 0.1 mM NADH, in which decreasing absorption at 340 nm was measured following the previously reported method. […]
(§1) All NMR experiments were performed with the Bruker 800 MHz spectrometer at 25 °C. A total of 0.2 mM ^15N-labeled BLVRB or apo-BLVRB was prepared in buffer (pH 6.5, 50 mM Bis-tris, 50 mM NaCl, and 5% D2O), and their ^1H-^15N heteronuclear single-quantum coherence (HSQC) spectra were recorded in the presence and absence of drug molecules. […] The diffusion-ordered spectroscopy (DOSY) spectra were measured using the ledbpgppr2s, with 80 ms diffusion delay, 2 s relaxation delay, and 32 gradient strength increments. […]

BLVRB = target: T3, BLVRB (Homo sapiens, UniProt P30043); test: BLVRB enzyme activity assay (NADPH absorption at 340 nm, FMN substrate); assay type: biochemical; settings: for uncompetitive inhibition constant (Kiu) / Ki: 0.5 µM BLVRB, 100 µM FMN, 100 µM NADPH, PBS, 0.5% DMSO, mixed inhibition model; for Ki: read-out: competitive inhibition constant (Kic); for inhibition pattern (Lineweaver–Burk plot): BLVRB in the presence of NADPH; for maximum velocity (Vm): enzyme parameter of BLVRB from the fit of the data set with this inhibitor
T3 construct: His6 (N, cleaved yes); made in house; host or cells: E. coli BL21(DE3), pET-21b
T3 sequence (P30043 1-206): T1 sequence (P30043 1-206)
Method: Enzyme kinetics were monitored using the absorption of NADPH at 340 nm with the SpectraMax Gemini EM Microplate Reader (Molecular Devices, San Jose, CA, USA). The enzyme reactions were conducted with 0.5 µM BLVRB, 100 µM FMN, and 100 µM NADPH in PBS buffer containing 0.5% DMSO in the presence of various concentrations of inhibitors (OSK and OSA). The initial velocities of the reactions were estimated from data collected over 5 min and were fitted to the Michaelis–Menten equation. The inhibition model and inhibition constants were determined using the in-house Python script of nonlinear least squares regression fitting.

[3] = cited from earlier work
apo-BLVRB = target: T4, apo-BLVRB (Homo sapiens, UniProt P30043); test: NMR 1H-15N HSQC chemical shift perturbation titration of apo-BLVRB; assay type: binding; settings: for Kd: Apo-BLVRB from NMR CSP experiment; for binding to apo-BLVRB: HSQC of apo-BLVRB titrated with drug (Figure S4)
T4 construct: His6 (N); made in house; host or cells: E. coli BL21(DE3), pET-21b
T4 sequence (P30043 1-206): T1 sequence (P30043 1-206)
Method: The human BLVRB protein was prepared following the previously reported method. Briefly, the N-terminal His6-tagged BLVRB was expressed in the E. coli BL21(DE3) strain using the pET-21b protein expression vector. The transformed E. coli cells were grown in LB and M9 media at 37 °C to express the nonlabeled and isotope-labeled (^15N or ^13C/^15N) BLVRB proteins, respectively. To induce protein expression, 0.5 mM IPTG was added to the cultures when the OD600 reached 0.8, and then the cells were harvested after ~3–4 h. Cells were lysed by sonication in buffer (pH 8.0, 25 mM Tris-HCl, 500 mM NaCl, and 10 mM β-mercaptoethanol). The BLVRB protein was first purified by His-tag affinity column chromatography using the HisTrap HP column (Cytiva). To remove the His-tag, the protein elution was dialyzed in buffer (pH 8.0, 50 mM Tris-HCl, and 1 mM dithiothreitol) overnight at 4 °C, after adding thrombin (~5 units per mg protein). Since thrombin bound to HiTrap-Q HP column at pH 8.0, ion-exchange column chromatography was performed with buffer (pH 8.0, 25 mM Tris-HCl, and 1 mM dithiothreitol), and then the elution was performed with 1.0 M NaCl gradient; BLVRB and thrombin eluted at ~150 and ~300 mM NaCl, respectively. To separate the His6-tagged BLVRB from the completely cleaved BLVRB, the HisTrap HP column was tandemly attached to the next of the HiTrap-Q column. The BLVRB protein was further purified by size exclusion chromatography (SEC) using the HiLoad 16/600 Superdex 75 (Cytiva) with nonbuffered solution (50 mM NaCl and 1 mM dithiothreitol). The protein fractions were concentrated using an ultracentrifugal filter with 10 kDa MWCO (Millipore, Burlington, MA, USA) and then were stored at −70 °C before use. Apo-BLVRB was prepared using the previously reported refolding method, with additional column chromatography steps. Briefly, the purified BLVRB was denatured in buffer (pH 7.5, 25 mM Tris-HCl, 10 mM β-mercaptoethanol, and 6.0 M urea) and then applied to the HisTrap HP column. After washing with buffer (pH 5.0, 25 mM Na-acetate, 10 mM β-mercaptoethanol, and 6.0 M urea), they were eluted with an additional 1.0 M NaCl gradient. […] The concentration was also determined using UV absorption with an extinction coefficient (A280) of 14,440 M^−1⋅cm^−1. […]
as §1

[4] = target: T1, human BLVRB (half-holo BLVRB); test: Isothermal titration calorimetry (ITC) of drug binding to half-holo BLVRB; settings: 25 °C
Method: The human BLVRB protein was prepared following the previously reported method. Briefly, the N-terminal His6-tagged BLVRB was expressed in the E. coli BL21(DE3) strain using the pET-21b protein expression vector. The transformed E. coli cells were grown in LB and M9 media at 37 °C to express the nonlabeled and isotope-labeled (^15N or ^13C/^15N) BLVRB proteins, respectively. To induce protein expression, 0.5 mM IPTG was added to the cultures when the OD600 reached 0.8, and then the cells were harvested after ~3–4 h. Cells were lysed by sonication in buffer (pH 8.0, 25 mM Tris-HCl, 500 mM NaCl, and 10 mM β-mercaptoethanol). The BLVRB protein was first purified by His-tag affinity column chromatography using the HisTrap HP column (Cytiva). To remove the His-tag, the protein elution was dialyzed in buffer (pH 8.0, 50 mM Tris-HCl, and 1 mM dithiothreitol) overnight at 4 °C, after adding thrombin (~5 units per mg protein). Since thrombin bound to HiTrap-Q HP column at pH 8.0, ion-exchange column chromatography was performed with buffer (pH 8.0, 25 mM Tris-HCl, and 1 mM dithiothreitol), and then the elution was performed with 1.0 M NaCl gradient; BLVRB and thrombin eluted at ~150 and ~300 mM NaCl, respectively. To separate the His6-tagged BLVRB from the completely cleaved BLVRB, the HisTrap HP column was tandemly attached to the next of the HiTrap-Q column. The BLVRB protein was further purified by size exclusion chromatography (SEC) using the HiLoad 16/600 Superdex 75 (Cytiva) with nonbuffered solution (50 mM NaCl and 1 mM dithiothreitol). The protein fractions were concentrated using an ultracentrifugal filter with 10 kDa MWCO (Millipore, Burlington, MA, USA) and then were stored at −70 °C before use. Apo-BLVRB was prepared using the previously reported refolding method, with additional column chromatography steps. Briefly, the purified BLVRB was denatured in buffer (pH 7.5, 25 mM Tris-HCl, 10 mM β-mercaptoethanol, and 6.0 M urea) and then applied to the HisTrap HP column. After washing with buffer (pH 5.0, 25 mM Na-acetate, 10 mM β-mercaptoethanol, and 6.0 M urea), they were eluted with an additional 1.0 M NaCl gradient. After 2-fold dilution with buffer (pH 5.0, 20 mM Na-acetate, 10 mM β-mercaptoethanol, and 6.0 M urea), apo-BLVRB was further purified by cation-exchange column chromatography using the HiTrap-SP column (Cytiva). Protein elution was performed by 1.0 M NaCl gradient in the presence of 6.0 M urea. The protein was refolded by dialysis in buffer (pH 6.5, 50 mM Bis-tris, 150 mM NaCl, and 1 mM DTT). After removing the aggregate (~20%) by centrifuge, it was purified by SEC using the HiLoad 16/600 Superdex 75 with buffer (pH 6.5, 10 mM Bis-tris, 50 mM NaCl, and 1 mM DTT). The apo-BLVRB solution was concentrated and then stored at −70 °C. Although thawing the frozen sample caused ~10% precipitation of apo-BLVRB, the maintenance of the structure was confirmed by ^1H-^15N HSQC spectrum. The concentration was also determined using UV absorption with an extinction coefficient (A280) of 14,440 M^−1⋅cm^−1. The purity was confirmed by SDS-PAGE gel analysis.
The ITC experiment was conducted in buffer (pH 6.5, 50 mM Bis-tris, 50 mM NaCl, and 0.1 mM TCEP) using a Microcal Auto-iTC200 (Malvern Instruments, Malvern, UK) at 25 °C. The calorimetric cell (200 μL) and syringe (40 μL) were loaded with 0.09 mM BLVRB and 1.1 mM drug (OSK or OSA), respectively. The ITC data were analyzed after subtracting the heat from blank injections that were measured under the same conditions but in the absence of BLVRB. Data processing was carried out using the Origin software provided by the manufacturer, where the fittings were performed with a one-site binding model.

half-holo BLVRB = tested on: T5, half-holo BLVRB; test: 1H-15N HSQC of half-holo BLVRB with 5-ASA; assay type: binding, human; settings: 0.1 mM half-holo BLVRB, 1 mM 5-ASA, HSQC (Figure S3)
T5 construct: His6 (N, cleaved yes); made in house; host or cells: E. coli BL21(DE3), pET-21b
Method: All NMR experiments were performed with the Bruker 800 MHz spectrometer at 25 °C. A total of 0.2 mM ^15N-labeled BLVRB or apo-BLVRB was prepared in buffer (pH 6.5, 50 mM Bis-tris, 50 mM NaCl, and 5% D2O), and their ^1H-^15N heteronuclear single-quantum coherence (HSQC) spectra were recorded in the presence and absence of drug molecules. The 1-dimensional (1D) ^1H spectra to monitor the enzyme reactions were conducted in PBS buffer. The chemical shift perturbation (CSP) data were presented using the square root of (ΔH)^2 + [(ΔN)/6]^2 to normalize the relative effects from the CSPs of ^1H and ^15N [44]. The diffusion-ordered spectroscopy (DOSY) spectra were measured using the ledbpgppr2s, with 80 ms diffusion delay, 2 s relaxation delay, and 32 gradient strength increments. The backbone assignments were referenced from BMRB Entry ID: 27463 for holo BLVRB and Entry ID: 27462 for apo BLVRB to assign the spectra in the presence and absence of the drug.
Figure S3. 5-ASA binding of half-holo BLVRB: (A) The 1H-15N HSQC spectra of 0.1 mM half-holo BLVRB in the absence (black) and presence (red) of 1 mM 5-ASA. (B) Chemical shift diﬀerences between half-holo BLVRB and BLVRB in complex with OSK (black) and 5-ASA (red). (C) NMR ti-tration data for binding to half-holo BLVRB. […]

Row | Compound | cleavage by AzoR [2] | uncompetitive inhibition constant (Kiu) (BLVRB) | Ki (BLVRB) | inhibition pattern (Lineweaver–Burk plot) (BLVRB) | maximum velocity (Vm) (BLVRB) | Kd (apo-BLVRB) | binding to apo-BLVRB (apo-BLVRB) | Kd [4] | TΔS [4] | ΔG [4] | ΔH [4] | also measured
1 | O=C1OC2(c3ccccc31)c1cc(I)c(O)c(I)c1Oc1c2cc(I)c(O)c1I [erythrosin B] |  |  |  |  |  |  |  |  |  |  |  | effect of chronic administration (rats): thyroid stimulation
2 | O=C([O-])c1c(Cl)c(Cl)c(Cl)c(Cl)c1-c1c2cc(Br)c(=O)c(Br)c-2oc2c(Br)c([O-])c(Br)cc12.[Na+].[Na+] [Phloxine B, phloxine B] |  |  |  |  |  |  |  |  |  |  |  | Kd [1]: 1360 ± 220 nM; TΔS [1]: 4.12 ± 0.12 kcal/mol; ΔG [1]: -8.00 ± 0.10 kcal/mol; ΔH [1]: -3.88 ± 0.06 kcal/mol
3 | O=C(O)c1cc(/N=N/c2ccc(O)c(C(=O)O)c2)ccc1O [Olsalazine, olsalazine] | cleavage of its diazenyl bond and the formation of 5-ASA | 0.79 ± 0.06 µM | 550 ± 40 nM | mixed inhibition pattern | 4.71 ± 0.09 µM/min | 9310 ± 2410 nM | able to bind to the apo-BLVRB | 150 ± 230 nM | -4.22 ± 0.13 kcal/mol | -9.32 ± 0.09 kcal/mol | -13.54 ± 0.08 kcal/mol | plasma elimination half-life [3]: approximately 1 h
4 | O=C(O)c1cc(/C=C/c2ccc(O)c(C(=O)O)c2)ccc1O [Olsalkene, (E)-5,5′-(ethene-1,2-diyl)bis(2-hydroxybenzoic acid)] | remains intact and is not cleaved by AzoR | 0.61 ± 0.06 µM | 560 ± 100 nM | mixed inhibition pattern | 4.80 ± 0.16 µM/min | 11400 ± 2220 nM | able to bind to the apo-BLVRB | 140 ± 270 nM | -5.98 ± 0.17 kcal/mol | -9.33 ± 0.11 kcal/mol | -15.31 ± 0.12 kcal/mol | 
5 | Nc1ccc(O)c(C(=O)O)c1 [5-ASA, 5-aminosalicylic acid] |  |  |  |  |  |  |  |  |  |  |  | binding to BLVRB (half-holo BLVRB): reduced significantly
